Measurements as given in patent US20250325636A1, “USE OF ENDOTHELIN RECEPTOR TYPE B AGONISTS FOR THE TREATMENT OF AORTIC VALVE STENOSIS” (INSTITUT NATIONAL DE LA SANTÉ ET DE LA RECHERCHE MÉDICALE, priority 2022, published 2025).

System: valvular interstitial cells (VIC)
Test: Calcium content of valvular interstitial cells cultured in pro-calcifying medium containing inorganic phosphate (o-cresolphtalein-based assay)
Type: cell-based, human
Conditions: VIC in procalcifying conditions containing inorganic phosphate (Pi), 10 days, compared to non-treated VIC
Method: Valvular endothelial cells (VEC), isolated from human aortic valves, were cultured in a cell perfusion system to assess ET-1 production in different fluid flow shear stress conditions. In addition, valvular interstitial cells (VIC) were cultured in a pro-calcifying culture medium containing inorganic phosphate (Pi) with or without antagonists of either the ETA or ETB receptor antagonists or with the agonist of the ETB receptor IRL 1620 during 10 days. Aortic valves from rats were also cultured in ex vivo and stimulated with ET-1 antagonists. Calcium content was assessed using an o-cresolphtalein-based assay and fluorescence by Osteosens. VEC prepro-ET-1 and VIC osteogenic mRNA expression levels were evaluated by RTqPCR.

N-Succinyl-[Glu9, Alal U5]-Endothelin 1 fragment 8-21 [IRL-1620]
Calcium content of VIC: decreased the calcium content of VIC
Calcium content of VIC (listed as IRL 1620): decreases their calcium content
